Results reported in patent US6331548A, “1-cycloalkyl-1,8-naphthyridin-4-one derivative as type IV phosphodiesterase inhibitor” (Suntory Limited, priority 1998, dated 2001).
Structures can show the parent of a compound that is named as a salt.

Columns and labels:
[1] = molecular target: type IV phosphodiesterase; test: Type IV phosphodiesterase inhibiting activity; format: biochemical, human; conditions: U937 type IV phosphodiesterase fraction, 0.28 μM cAMP, pH 7.5, 30° C., 30 minutes; read-out: PDEIV-IC50
Experimental: The following assay was used to evaluate the ability of the compound of the present invention to suppress type IV phosphodiesterase, according to Biochemical. Pharmacol. 48 (6), 1219-1223 (1994).
1) Type IV phosphodiesterase activity fractions were prepared as follows. Namely, human histiocytic lymphoma cell line U937 was cultured in an RPMI1640 medium containing 10% fetal calf serum to obtain 10^9 cells of U937. The cells were recovered by centrifugation and suspended in 40 ml of buffer A (20 mM bis-tris, 5 mM 2-mercaptoethanol, 2 mM benzamidine, 2 mM EDTA, 0.1 mM 4-(2-aminoethyl)benzensulfonyl hydrochloride, 50 mM sodium acetate, pH=6.5). The cells were broken by a sonication and centrifuged (4° C., 10,000 G, 10 minutes) to obtain a supernatant. This was filtered by a 0.45 μm filter to obtain the soluble fraction.
2) The soluble fraction obtained was applied into a 1×10 cm DEAE Sepharose column equalibrated with the buffer A. 120 ml of the buffer A containing a linear gradient solution of 0.05 to 1M sodium acetate was used to separate the phosphodiesterase and recover 24 5-ml fractions. Each of the fractions was measured for the cAMP phosphodiesterase activity.
3) The test compound was reacted at a desired concentration in a reaction mixture containing 20 mM tris-HCl (pH 7.5), 1 mM MgCl2, 100 μM EDTA, 330 μg/ml calf serum albumin, 10 μg/ml 5'-nucleotidase, 0.4 μCi ^3 H-cAMP (0.28 μM cAMP) and the type IV phosphodiesterase stored solution at 30° C. for 30 minutes. QAE-Sephadex suspended in 10 mM of hepes-Na (pH -7.0) was added to the reaction mixture which was then allowed to stand for 5 minutes, then the supernatant was obtained, QAE-Sephadex was further added, to the supernatant, and was allowed to stand for 5 minutes, then the supernatant was obtained and measured for radioactivity.

[2] = system: TNF-α production by LPS stimulated macrophages; test: TNF-α production inhibitory activity by LPS stimulated macrophages; format: cell-based; conditions: Macrophage, BALB/c mouse peritoneal macrophages, cultured for 8 hours, ELISA
Experimental: The following assay was used to evaluate the ability of the compound of the present invention to suppress TNF-α production by LPS stimulated macrophages according to Immunopharmacol. 29, 121-127 (1995).
1) 6 to 10 week old female BALB/c mice were used, 2 ml portions of thioglycolate were intraperitoneally administered, and the abdominal cavities were washed by 10 ml of PBS after 4 days, whereby 1 to 2×10^7 peritoneal cells were obtained per mouse. These were suspended in a hemocyte solution (0.75% ammonium chloride, 17 mM tris-hydrochlorate buffer, pH7.2), centrifuged, then resuspended in an RPMI1640 medium including 10% fetal calf serum and seeded in a 96-well cell culture plate at a density of 1×10^5 cells/50 μl/well. Since these cells adhered strongly to the tissue culture plate and were positive in nonspecific esterase staining, they were used for the test as mouse peritoneal macrophages. Mouse peritoneal macrophages were precultured overnight at 37° C. in […] for the experiment.
2) E. Coli (serum type 055:B5) derived LPS was dissolved in PBS in a concentration of 1 mg/ml, then sterilized by filtration. The test compound was dissolved in DMSO to make a 1000-fold concentration solution of the final concentration of use. 10 μl of the above LPS stock solution (final concentration 10 μg/ml) and 1 μl of the tested substance stock solution were added and mixed in 0.5 ml of RPMI1640 medium containing 10% fetal calf serum. This was added to the above cells at 50 μl/well and cultured for 8 hours. The cultured supernatant was recovered from each well and the TNF-α concentration was measured by the ELISA method (Cytoscreen® Immunoassay Kit Mouse TNF-α, BioSourse International).
The comparative example was the compound described in WO-A-97-04775, Example 1, mentioned above.

Row | IC50 [1] [µM] | IC50 [2] [µM] | Compound
1 | 0.0004 | 0.003 | O=C(Nc1c(Cl)cncc1Cl)c1cn(C2CCSCC2)c2ncccc2c1=O [Example 101, N-(3,5-dichloropyridin-4-yl)-1-(4-tetrahydrothiopyranyl)-1,4-dihydro[1,8]naphthylidin-4-one-3-carboxamide]
2 | 0.043 | 0.07 | O=C(Nc1ccncc1)c1cn(C2CCSCC2)c2ncccc2c1=O [Example 100, N-(4-pyridyl)-1-(4-tetrahydrothiopyranyl)-1,4-dihydro[1,8]naphthylidin-4-one-3-carboxamide]
3 | 0.2 | 1.2 | O=C(Nc1ccncc1Cl)c1cn([C@H]2CC[C@H](O)CC2)c2ncccc2c1=O [Example 122, N-(3-chloropyridin-4-yl)-1-(trans-4-hydroxycyclohexyl)-1,4-dihydro[1,8]naphthylidin-4-one-3-carboxamide]
4 | 0.04 | 0.8 | O=C(Nc1c(Cl)cncc1Cl)c1cn(C2CCNCC2)c2ncccc2c1=O [Example 47, N-(3,5-dichloropyridin-4-yl)-1-(4-piperidyl)-1,4-dihydro[1,8]naphthylidin-4-one-3-carboxamide hydrochloride]
5 | 0.39 | 1.2 | O=C1CCC(n2cc(C(=O)Nc3ccncc3Cl)c(=O)c3cccnc32)CC1 [Example 123, N-(3-chloropyridin-4-yl)-1-(4-oxocyclohexyl)-1,4-dihydro[1,8]naphthylidin-4-one-3-carboxamide]
6 | 0.043 | 0.05 | CN1CCC(n2cc(C(=O)Nc3c(Cl)cncc3Cl)c(=O)c3cccnc32)CC1 [Example 51, N-(3,5-dichloropyridin-4-yl)-1-(1-methylpiperidin-4-yl)-1,4-dihydro[1,8]naphthylidin-4-one-3-carboxamide]
7 | 0.016 | 0.2 | O=C(Nc1c(Cl)cncc1Cl)c1cn(C2CCS(=O)(=O)CC2)c2ncccc2c1=O [Example 102 (Sulfon), N-(3,5-dichloropyridin-4-yl)-1-(1,1-dioxotetrahydrothiopyran-4-yl)-1,4-dihydro[1,8]naphthylidin-4-one-3-carboxamide]
8 | 0.12 |  | O=C(Nc1ccncc1)c1cn(C2CCC2)c2ncccc2c1=O [Example 144, N-(4-pyridyl)-1-cyclobutyl-1,4-dihydro[1,8]naphthylidin-4-one-3-carboxamide]
9 | 0.13 |  | Cc1cnccc1NC(=O)c1cn(C2CC2)c2ncccc2c1=O [Example 157, N-(3-methylpyridin-4-yl)-1-cyclopropyl-1,4-dihydro[1,8]naphthylidin-4-one-3-carboxamide]
10 | 0.0083 |  | O=C(Nc1c(Cl)cncc1Cl)c1cn(C2CCC2)c2ncccc2c1=O [Example 145, N-(3,5-dichloropyridin-4-yl)-1-cyclobutyl-1,4-dihydro[1,8]naphthylidin-4-one-3-carboxamide]
11 | 0.36 |  | O=C(Nc1cccnc1)c1cn([C@H]2CC[C@H](O)CC2)c2ncccc2c1=O [Example 172, N-(3-pyridyl)-1-(trans-4-hydroxycyclohexyl)-1,4-dihydro[1,8]naphthylidin-4-one-3-carboxamide]
12 | 0.18 |  | O=C1CCC(n2cc(C(=O)Nc3ccncc3)c(=O)c3cccnc32)CC1 [Example 61, N-(4-pyridyl)-1-(4-oxocyclohexyl)-1,4-dihydro[1,8]naphthylidin-4-one-3-carboxamide]

More lines, now with the values behind:

Row | Compound | IC50 [1] [µM] | IC50 [2] [µM]
13 | O=C(Nc1c(Cl)cncc1Cl)c1cn([C@H]2CCOC2)c2ncccc2c1=O [Example 44, N-(3,5-dichloropyridine-4-yl)-1-[(S)-tetrahydro-3-furanyl]-1,4-dihydro[1,8]naphthylidin-4-one-3-carboxamide] | 0.0027 | 0.01
14 | COC(=O)N1CC(n2cc(C(=O)Nc3ccncc3)c(=O)c3cccnc32)C1 [Example 33, N-(4-pyridyl)-1-(1-methoxycarbonylazetidin-3-yl)-1,4-dihydro[1,8]naphthylidin-4-one-3-carboxamide] | 2 | 5
15 | CN(C)C(=O)[C@@H]1C[C@H](n2cc(C(=O)Nc3c(Cl)cncc3Cl)c(=O)c3cccnc32)CN1C(=O)OCc1ccccc1 [Example 92, N-(3,5-dichloropyridin-4-yl)-1-[(3S,5S)-(1-benzyloxycarbonyl-5-dimethylaminocarbonyl)pyrrolidin-3-yl]-1,4-dihydro[1,8]naphthylidin-4-one-3-carboxamide] | 0.0021 | 0.07
16 | COC(=O)N1CC[C@@H](n2cc(C(=O)Nc3c(Cl)cncc3Cl)c(=O)c3cccnc32)C1 [Example 17, (R)-N-(3,5-dichloropyridin-4-yl)-1-(1-methoxycarbonylpyrrolidin-3-yl)-1,4-dihydro[1,8]naphthylidin-4-one-3-carboxamide] | 0.0048 | 0.01
17 | NC(=O)N1CC[C@H](n2cc(C(=O)Nc3c(Cl)cncc3Cl)c(=O)c3cccnc32)C1 [Example 20, (S)-N-(3,5-dichloropyridin-4-yl)-1-(1-aminocarbonylpyrrolidin-3-yl)-1,4-dihydro[1,8]naphthylidin-4-one-3-carboxamide] | 0.012 | 3
18 | CC(=O)N1CCC(n2cc(C(=O)Nc3c(Cl)cncc3Cl)c(=O)c3cccnc32)CC1 [Example 28, N-(3,5-dichloropyridin-4-yl)-1-(1-acetylpiperidin-4-yl)-1,4-dihydro[1,8]naphthylidin-4-one-3-carboxamide] | 0.0078 | 0.1
19 | COC(=O)N1CC[C@H](n2cc(C(=O)Nc3c(Cl)cccc3Cl)c(=O)c3cccnc32)C1 [Example 9, (S)-N-(2,6-dichlorophenyl)-1-(1-methoxycarbonylpyrrolidin-3-yl)-1,4-dihydro[1,8]naphthyridin-4-one-3-carboxamide] | 0.023 | 0.1
20 | O=C(Nc1c(Cl)cncc1Cl)c1cn([C@@H]2CCOC2)c2ncccc2c1=O [Example 39, N-(3,5-dichloropyridin-4-yl)-1-[(R)-tetrahydro-3-furanyl]-1,4-dihydro[1,8]naphthylidin-4-one-3-carboxamide] | 0.01 | 5
21 | O=C(O)CN1CCC(n2cc(C(=O)Nc3c(Cl)cncc3Cl)c(=O)c3cccnc32)CC1 [Example 50] | 0.1 | 7
22 | O=C(NC1CCC1)c1cn([C@H]2CC[C@H](O)CC2)c2ncccc2c1=O [Example 164] | 0.4 | 
23 | COc1ccc(C2CNC(=O)C2)cc1OC1CCCC1 (stereo not shown) [Rolipram, reference compound] |  | 0.1
24 | O=C(O[C@H]1CC[C@H](n2cc(C(=O)Nc3c(Cl)cncc3Cl)c(=O)c3cccnc32)CC1)c1cccc(CN2CCOCC2)c1 [Example 162, trans-4-[3-{[(3,5-dichloro-4-pyridinyl)amino]carbonyl}-4-oxo[1,8]naphthylidin-1(4H)-yl]cyclohexyl 3-(morpholinomethyl)benzoate hydrochloride] | 0.006 | 
25 | CS(=O)(=O)N[C@H]1CC[C@H](n2cc(C(=O)Nc3c(Cl)cncc3Cl)c(=O)c3cccnc32)CC1 [Example 72, N-(3,5-dichloropyridin-4-yl)-1-[trans-4-(methanesulfonylamino)cyclohexyl]-1,4-dihydro[1,8]naphthylidin-4-one-3-carboxamide] | 0.11 | 
26 | Cc1noc(NC(=O)c2cn([C@H]3CC[C@H](O)CC3)c3ncccc3c2=O)c1C [Example 180, N-(3,4-dimethylisoxazol-5-yl)-1-(trans-4-hydroxycyclohexyl)-1,4-dihydro[1,8]naphthylidin-4-one-3-carboxamide] | 4.5 | 
27 | O=C(Nc1ccncc1)c1cn([C@H]2CC[C@@H](O)CC2)c2ncccc2c1=O [Example 115, N-(4-pyridyl)-1-(cis-4-hydroxycyclohexyl)-1,4-dihydro[1,8]naphthylidin-4-one-3-carboxamide] | 0.21 | 
